The record followed here is patent US20260318918A1, “CANCER DIAGNOSTICS AND TREATMENT BY MEANS OF PRMT5 INHIBITOR” (ARGONAUT THERAPEUTICS LIMITED, priority 2022, published 2026).

Common to all, as to type: cell-based
Test [1] concerns T-47D cell line (breast cancer). Briefly: MTT cell viability assay, T-47D (breast cancer), CRISPR knock-out. The settings on record: 8 days; for sensitivity to PRMT5 inhibition (cell viability) of cells lacking E2F1: E2F1 deleted by CRISPR; for sensitivity to PRMT5 inhibition (cell viability) of cells lacking pRb: pRb deleted by CRISPR. As to the method: (§1) T-47D cells were maintained in growth medium (RPMI 1640 supplemented with 10% v/v heat inactivated fetal bovine serum and cultured at 37° C., 5% CO2, U2OS, MCF7 and HCT116 cells were maintained in growth medium (DMEM supplemented with 10% v/v heat inactivated fetal bovine serum) and cultured at 37° C., 5% CO2. Under assay conditions, cells were incubated in assay medium (RPMI 1640 or […] supplemented with 10% v/v heat inactivated fetal bovine serum and 100 units/mL penicillin-streptomycin) at 37° C. under 5% CO2. For the assessment of the effect of compounds on the proliferation of the cancer cell lines, exponentially growing cells were plated into 96-well plates overnight at a density of 1,000 cells/well in a final volume of 100 μl of cell growth medium. The next day the cells were dosed with compounds (T-992, GSK3326595, LLY-283, PF-06939999 and JNJ64619178) (quadruplicate ten-point 5-fold serial dilutions in DMSO), beginning at 100 μM. After addition of compounds, assay plates were incubated for 8 days at 37° C., 5% CO2, relative humidity 90%. NAD(P)H-dependent cellular oxidoreductase enzyme activity was measured by adding 100 μl thiazolyl blue tetrazolium bromide (MTT: Sigma-Aldrich) to the wells at a final concentration of 5 μM and incubated for 2 h at 37° C. Next, media was discarded from the wells and the formazan crystals were dissolved in 100 μl DMSO by shaking for 15 min. Absorbance was read on the Omega FLUOstar plate reader (BMG Labtech Ltd, Ortenberg, Germany) at a wavelength of 584 nm. Data were analysed and IC50 values determined using MARs data analysis software (BMG Labtech Ltd, Ortenberg, Germany). The concentration of compound inhibiting cell viability by 50% was determined using a 4-parametric fit of the normalized dose response curves.
(§2) pSpCas9(BB)-2A-Puro (Addgene plasmid ID: 48139) was used for the generation of E2F1 and pRb knock out cell lines using CRISPR-Cas9 technology. Cell lines were generated as detailed in (Ran et al., 2013).
In general terms: Formazan colour is commonly taken as a measure of viable cells.

In test [2] the test system is HCT116 cell line (colorectal cancer). Description: MTT cell viability assay, HCT116 (colorectal cancer), CRISPR knock-out. The settings on record: E2F1 deleted by CRISPR, 8 days. As to the method: as §1, §2
Test [3] concerns U20S cell line (bone cancer). Description: MTT cell viability assay, U20S (bone cancer), CRISPR knock-out. The settings on record: pRb deleted by CRISPR, 8 days. As to the method:
as §1, with “The next day the cells were dosed with compounds (T-992, GSK3326595, LLY-283, PF-06939999 and JNJ64619178) (quadruplicate ten-point 5-fold serial dilutions in DMSO), beginning at 100 μM. After addition of compounds, assay plates were incubated for 8 days at 37° C., 5% CO2, relative humidity 90%.” left out, “Next, media was discarded from the wells and the formazan crystals were dissolved in 100 μl DMSO by shaking for 15 min.” left out, “curves. […]” for “curves.”

For the compound `Nc1ncnc2c1ccn2[C@@H]1O[C@H]([C@H](O)c2ccccc2)[C@@H](O)[C@H]1O` [LLY-283], the “sensitivity to PRMT5 inhibition (cell viability) of cells lacking E2F1” value in test [1] and in test [2] was “less sensitive” throughout.

As to `Cc1ncnc2c1ccn2[C@@H]1C[C@H](Oc2cc(C(F)F)c(F)c3c2CNCC3)[C@@H](O)[C@H]1O` [PF06939999], in test [1], the “sensitivity to PRMT5 inhibition (cell viability) of cells lacking E2F1” value is given as “less sensitive” and the “sensitivity to PRMT5 inhibition (cell viability) of cells lacking pRb” value was “more sensitive”. In addition, in test [2], the “sensitivity to PRMT5 inhibition (cell viability) of cells lacking E2F1” value was “less sensitive”.

In the case of `Nc1nc2cc(CC[C@H]3C[C@@H](n4ccc5c(N)ncnc54)[C@H](O)[C@@H]3O)ccc2cc1Br` [JNJ64619178], the “sensitivity to PRMT5 inhibition (cell viability) of cells lacking E2F1” value in test [1] and in test [2] was “less sensitive” in each case.

`CC(=O)N1CCC(Nc2cc(C(=O)NC[C@H](O)CN3CCc4ccccc4C3)ncn2)CC1` [GSK3326595]: in test [1], the “sensitivity to PRMT5 inhibition (cell viability) of cells lacking E2F1” value is reported as “less sensitive” and the “sensitivity to PRMT5 inhibition (cell viability) of cells lacking pRb” value is “more sensitive”. For the same compound, the “sensitivity to PRMT5 inhibition (cell viability) of cells lacking E2F1” value in test [2] is recorded as “less sensitive”.

As to `O[C@@H]1CO[C@H]2[C@@H]1OC[C@@H]2O` [AT101], the “sensitivity to PRMT5 inhibition (cell viability) of cells lacking E2F1” value in test [1] and in test [2] was “less sensitive” in each case. The “sensitivity to PRMT5 inhibition (cell viability) of cells lacking pRb” value in test [1] and in test [3] was “more sensitive” each time.
